Measured values published in patent US12590063B2, “Phenol derivative” (Sumitomo Pharma Co., Ltd., priority 2020, dated 2026).
Where a name gives a salt, the structure may show the parent alone. Marks after values point to notes of the source that are not given here.

Key:
[1] = tested on: normal rats; assay: Test for eye stimulatory properties in normal rats; format: in vivo, rat; conditions: rat, in vivo
Procedure: Test Example 7: Evaluation with Respect to Test for Eye Stimulatory Properties in Normal Rats
It has been reported that TRPV1 agonists have stimulatory properties and that administration of TRPV1 agonist solutions to the eye can induce wiping behavior. The stimulatory properties of the compounds were investigated using normal rats. Crl:CD(SD) male rats (5 rats per group, 8 weeks old, body weight 271 to 320 g) were held unanesthetized and 10 μL was dropped into the right eye using a micropipette.

[2] = molecular target: T1, Human TRPV1 (Homo sapiens, UniProt Q8NER1); assay: Evaluation of agonistic properties using human TRPV1 transiently expressing cells; format: cell-based; conditions: for EC50: HEK293 cells transiently expressing human TRPV1 and apoaequorin, luminescence signal Rlu (Max-Min), read-out: TRPV1 EC50; for TRPV-1-agonistic activity (in words): evaluation test for TRPV-1-agonistic properties, summary of Tables 3 and 4
T1 construct: the TRPV1 gene (GenBank NP_542435.2) had been inserted; expressed in transfected cells; host or cells: HEK293 cells (cat #CCL-82.2, ATCC), transient transfection with pcDNA3.1
T1 sequence (Q8NER1 whole entry): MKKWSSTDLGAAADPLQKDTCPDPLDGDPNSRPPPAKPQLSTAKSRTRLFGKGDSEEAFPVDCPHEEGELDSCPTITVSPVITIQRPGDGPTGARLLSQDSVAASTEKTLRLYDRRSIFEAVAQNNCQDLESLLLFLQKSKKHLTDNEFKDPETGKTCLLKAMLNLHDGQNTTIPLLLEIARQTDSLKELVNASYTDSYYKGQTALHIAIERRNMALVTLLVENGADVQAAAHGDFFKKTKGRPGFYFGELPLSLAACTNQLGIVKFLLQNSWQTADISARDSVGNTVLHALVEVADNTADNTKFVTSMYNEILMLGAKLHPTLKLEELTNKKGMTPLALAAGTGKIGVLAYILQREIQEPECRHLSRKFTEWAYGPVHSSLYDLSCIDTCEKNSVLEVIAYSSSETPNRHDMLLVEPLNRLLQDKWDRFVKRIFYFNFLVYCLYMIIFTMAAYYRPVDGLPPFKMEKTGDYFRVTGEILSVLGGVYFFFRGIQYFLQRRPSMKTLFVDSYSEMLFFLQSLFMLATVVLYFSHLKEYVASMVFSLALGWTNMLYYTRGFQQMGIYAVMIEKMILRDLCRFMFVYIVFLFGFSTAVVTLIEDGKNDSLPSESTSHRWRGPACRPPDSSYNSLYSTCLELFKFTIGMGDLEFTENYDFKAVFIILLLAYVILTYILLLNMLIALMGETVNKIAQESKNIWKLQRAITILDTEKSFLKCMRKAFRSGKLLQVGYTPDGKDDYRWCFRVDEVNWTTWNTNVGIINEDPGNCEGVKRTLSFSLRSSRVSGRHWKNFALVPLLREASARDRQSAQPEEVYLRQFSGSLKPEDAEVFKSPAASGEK
Source text: Test Example 1: Evaluation of Agonistic Properties Using Human TRPV1 Transiently Expressing Cells
(1) Generation of Human TRPV1 Transiently Expressing Cells
Human TRPV1 transiently expressing cells were generated and subjected to culture. Specifically, HEK293 cells (cat #CCL-82.2, ATCC) were used as host cells. Human TRPV1 and apoaequorin were transiently expressed by introducing the mammalian cell expression pcDNA3.1 vector (cat #v790-20, Invitrogen) into which the TRPV1 gene (GenBank NP_542435.2) had been inserted.
The Dulbecco's Modified Eagle's Medium (DMEM) medium (cat #11550-043, Thermo Fisher Scientific) containing 10% inactivated fetal bovine serum (cat #10270-106, Thermo Fisher Scientific) was used as the medium, and the culture was carried out in tissue culture dishes (cat #3020-100, Iwaki). During the culture, cells were collected every 2 to 3 days by treating with PBS containing 10% 2.5 g/1-trypsin/[…] solution, phenol red (cat #32777-44, Nacalai Tesque), and passage culture was carried out.
Three days after the passage, cells were collected with 10% trypsin-PBS treatment at a state of about 80% confluency, suspended in a DMEM medium containing 10% fetal bovine serum to 4000 cells/35 μl/well, and seeded into 384-well plates (cat #353962, FALCON).
The day after seeding, Viviren (cat #E6492, Promega) was added (15 μl/well) to a final concentration of 4.5 μM/HBSS (cat #14065-056, Thermo Fisher Scientific)/90 mM HEPES (cat #17514-15, Nacalai Tesque)/0.1% BSA (cat #01281-84, Nacalai Tesque), and after centrifugation, the samples were allowed to stand at room temperature for 2 hours under light-shielded conditions.
(2) Preparation of Test Compounds
For the test compounds, dimethyl sulfoxide solutions were produced at a concentration 1000 times the final concentration, and from these solutions, solutions at concentration 10 times the final concentration were prepared with Hanks/20 mmol/L HEPES/0.10% BSA (cat #01281-84, Nacalai Tesque).
(3) Evaluation of TRPV1-Agonistic Properties
FDSS7000 (Hamamatsu Photonics K.K.) was used for detection of TRPV1 agonist-stimulated luminescence signals. The test compounds were added to plates to which the cells and luminescent substrates had been added. The luminescence signals (center wavelength: 465 nm) after addition of the test compounds were measured, and the Rlu (Max−Min) was calculated.

[3] = tested on: normal rats; assay: Evaluation of effect of increasing swallowing in normal rats; format: in vivo, rat; conditions: anesthetized normal rats; for number of swallowings, Average: pharyngeal infusion 12 ml/h for 10 seconds, counted for 30 seconds
Procedure: Test Example 5: Evaluation of Effect of Increasing Swallowing in Normal Rats
This test is for evaluating the effect of increasing swallowing function of drugs. It has been reported that induction of the swallowing reflex in normal rats using NaCl-containing water suppresses the number of swallows, and the increase in swallowing function was evaluated using a NaCl-containing solvent. After the induction of anesthesia in Crl:CD(SD) male rats (7 to 8 rats per group, 8 to 9 weeks old, body weight 280 to 310 g: at the time of arrival), the animals were sheared under the jaw with clippers and held in a supine position on a heat pad kept at 37° C. to prevent limb movement. A rat sonde was inserted into the animals' mouths, and the tip of the sonde was retained in the pharynx. Under this condition, the test substance administration solution was administered at 12 ml/h for 10 seconds using an infusion pump, and the swallowing movements were measured for 30 seconds from the initiation of administration. Note that the vehicle used was saline solution containing 1% ethanol and 0.1% Tween 80.

[4] = tested on: Crl:CD(SD) rats; assay: Evaluation of taste aversion by drinking water; format: in vivo, rat; conditions: two-bottle choice, overnight
Procedure: Test Example 3: Evaluation of Taste Aversion by Drinking Water
This test is for evaluating the taste aversion of drugs. The test was carried out by, while keeping Crl:CD(SD) rats (8 rats per group, 8 weeks old at the time of arrival) in home cages, adding the test substance solutions to water bottles. Two water bottles per cage were prepared, each filled with vehicle (sterile water containing 0.05% ethanol) and the test substance solution, and kept overnight, and the amount of water consumed during that period was measured. The proportion of water consumed with the test substance was calculated from the total amount of water consumed from the two water bottles, and the evaluation of taste aversion was carried out. It can be evaluated that the larger the proportion of water consumed with the test substance, the smaller the taste aversion and the smaller the stimulatory properties caused by the test substance.

[5] = Evaluation test for metabolic stability to S9; format: in vitro ADME; conditions: liver S9 fraction, 37° C., 15 minutes, final compound concentration 10 nM
Procedure: Test Example 4: Evaluation Test for Metabolic Stability to S9
The compounds were added to a reaction solution in which the liver S9 fraction was diluted with phosphate buffer, and incubation was initiated at 37° C. (final compound concentration 10 nM, final volume 300 μL). After incubation for 15 minutes, the reaction was stopped by adding the reaction solution to acetonitrile, and centrifugation was carried out. After filtering the supernatant through a filter, the amount of compounds was determined using LC/MS/MS. From the amount of compounds obtained, the residual rate 15 minutes after the initiation of the reaction was calculated relative to the amount of compounds before the initiation of the reaction (0 minutes).

[6] = tested on: normal rats; assay: Desensitization of effect of increasing swallowing in normal rats; format: in vivo, rat; conditions: for number of swallows, Average, First time: 1st of five administrations about 5 minutes apart; for number of swallows, Average, Second time: 2nd of five administrations about 5 minutes apart; for number of swallows, Average, Third time: 3rd of five administrations about 5 minutes apart; for number of swallows, Average, Fourth time: 4th of five administrations about 5 minutes apart; for number of swallows, Average, Fifth time: 5th of five administrations about 5 minutes apart
Source text: Test Example 6: Evaluation with Respect to Desensitization of Effect of Increasing Swallowing in Normal Rats
TRPV1 agonists are known to induce TRPV1 desensitization when given at high doses or repeatedly. Using the same method as in Test Example 5, the effect of drugs on normal swallowing function in rats to induce desensitization was investigated. After the induction of anesthesia in Crl:CD(SD) male rats (7 to 8 rats per group, 8 to 9 weeks old, body weight 280 to 310 g: at the time of arrival), the animals were sheared under the jaw with clippers and held in a supine position on a heat pad kept at 37° C. to prevent limb movement. A sonde was inserted into the animals' mouths, and the tip of the sonde was retained in the pharynx. Under this condition, the test substance administration solution was administered at 12 ml/h for 10 seconds using an infusion pump, and the swallowing movements were measured for 30 seconds from the initiation of administration. Thereafter, the same test was performed about 5 minutes later, and the evaluation was repeated for a total of five times. Note that the vehicle used was saline solution containing 1% ethanol and 0.1% Tween 80.

Compound	number of wiping behaviors versus control (Dunnett's test) [1]	EC50 [2]	TRPV-1-agonistic activity (in words) [2]	number of swallowings, Average [3]	proportion of water consumed with the test substance (% Vehicle) ([4]; 1 μM in drinking water)	proportion of water consumed with the test substance (% Vehicle) ([4]; 3 μM in drinking water)	proportion of water consumed with the test substance (% Vehicle) ([4]; 10 μM in drinking water)	Residual rate (%) [5]	number of swallowings compared to the solvent administered group (Dunnett's test) [3]	number of swallows, Average, First time ([6]; 10 μM)	number of swallows, Average, Second time ([6]; 10 μM)	number of swallows, Average, Third time ([6]; 10 μM)	number of swallows, Average, Fourth time ([6]; 10 μM)	number of swallows, Average, Fifth time ([6]; 10 μM)	number of swallows, Average, First time ([6]; 30 μM)	number of swallows, Average, Second time ([6]; 30 μM)	number of swallows, Average, Third time ([6]; 30 μM)	number of swallows, Average, Fourth time ([6]; 30 μM)	number of swallows, Average, Fifth time ([6]; 30 μM)	number of swallows at repeated administrations compared to the 1st administration (Dunnett's test) ([6]; five administrations about 5 minutes apart)
COc1cc(CC(=O)Nc2cccc(-c3cccc(OC(=O)C(C)C)c3)n2)ccc1O [Example 1, 3-{6-[2-(4-Hydroxy-3-methoxyphenyl)acetamido]pyridin-2-yl}phenyl 2-methylpropanoate]	no significant difference	2.6 nM	stronger TRPV-1-agonistic activity	7.6	90 % Vehicle	66 % Vehicle	35 % Vehicle	<1%												
COc1cc(CC(=O)Nc2cccc([C@H]3CC[C@@H](OC(=O)C4CCCCC4)CC3)c2)ccc1O [Example 2, cis-4-{3-[2-(4-Hydroxy-3-methoxyphenyl)acetamido]phenyl}cyclohexyl cyclohexanecarboxylate]	no significant difference	4.5 nM	stronger TRPV-1-agonistic activity	17.8***	94 % Vehicle	80 % Vehicle	71 % Vehicle	1%	significantly increased											
COc1cc(CC(=O)Nc2cccc([C@H]3CC[C@@H](OC(C)=O)CC3)c2)ccc1O [Example 12, cis-4-{3-[2-(4-hydroxy-3-methoxyphenyl)acetamido]phenyl}cyclohexyl acetate]	no significant difference	6.3 nM		19.4**	103 % Vehicle	31 % Vehicle	22 % Vehicle	2%												
COc1cc(CC(=O)Nc2ccnc(-c3cccc(OC(=O)C(C)C)c3)c2)ccc1O [Example 26, 3-{4-[2-(4-hydroxy-3-methoxyphenyl)acetamido]pyridin-2-yl}phenyl 2-methylpropanoate]		2.3 nM	stronger TRPV-1-agonistic activity		113 % Vehicle	86 % Vehicle	55 % Vehicle	<1%												
COc1cc(CNC(=O)c2cccc(-c3cccc(OC(=O)C(C)C)c3)n2)ccc1O [Example 47, 3-(6-{[(4-hydroxy-3-methoxyphenyl)methyl]carbamoyl}pyridin-2-yl)phenyl 2-methylpropanoate]		148 nM						<1%												
COc1cc(CC(=O)Nc2ccnc(-c3cccc(OC(=O)C(C)C)c3)c2)ccc1O [Example 49, 3-{4-[2-(4-Hydroxy-3-methoxyphenyl)acetamido]pyridin-2-yl}phenyl 2-methylpropanoate hydrochloride]	no significant difference			15.0*					significantly increased	12.3	12.4	12.9	11.3	14.4	17.1	13.9	14.1	12.4	12.7	no significant difference
